pIC50: −log10 of the molar value.

Test [1] has as its system Non-Small Lung Cancer Cells (NSLCs). As to the kind of experiment: Trypan Blue Exclusion Test of cancer cell viability. It counts as cell-based. To be noted: defined in text as concentration of derivative causing greater than 90% of the cells to die; read-out: Anti-Cancer Activity (Trypan Blue Exclusion Assay) IC50. The procedure: The ability of 1,2,3-triazole derivatives according to the disclosure to kill cancer cells can be measured, e.g., by Trypan Blue Exclusion Assay which measured cell death by starvation due to the presence of the derivative (see EXAMPLE 4). The results obtained using this assay with some representative 1,2,3-triazole derivatives according to the disclosure are shown below in Table 4.
The effect of Derivative 1 on cancer cell viability was determined using the Trypan Blue Exclusion Test (Stober (2001) (Curr. Protoc. Immunol., May; Appendix 3:Appendix 3B. doi: 10.1002/0471142735.ima03bs21). The viability of Non-Small Lung Cancer Cells (NSLCs) was assessed over a period of 15 days after the promotion of coagulation with or without 200 μM of 1,2,3-triazole derivative 1 and with or without 2% human plasma. Fresh 2% FBS medium corresponding to each condition was added every 3 days. Cell death was analyzed using Trypan blue staining. 2% FBS medium was used as control. Some representative results are shown in FIGS. 4A-4F.

For test [2] the test system is unchanged. In words: Cancer migration (wound healing) assay. It counts as cell-based. To be noted: wound healing assay, dose-response curve; read-out: Anti-Cancer Activity (Inhibition of Cancer Cell Migration) IC50. From the text:
The ability of 1,2,3-triazole derivatives according to the disclosure to inhibit cancer cell migration and proliferation in vitro can be measured, e.g., by a wound healing assay (Rodriguez et al., in Cell Migration: Developmental Methods and Protocols, Web et al., Guan ed. Humana Press 294, 23-29). This assay is based on the observation that, upon the creation of an artificial gap on a confluent cancer cell monolayer, the cells on the edge of the created gap will start migrating and proliferating until new cell-cell contacts are established (EXAMPLE 3).
Non-Small Lung Cancer Cells (NSLCs) migration rate was assessed in an in vitro wound healing assay. This assay is based on the observation that, upon the creation of an artificial gap on a confluent cell monolayer, the cells on the edge of the created gap will start migrating and proliferating until new cell-cell contacts are established.
A confluent cell layer is a prerequisite for starting this assay. Gap formation is done manually with a scrapper and cell proliferation and migration is determined recording a time-lapse video for 20 hr. with a time interval of 30 min. The microscopic pictures are manually analyzed for obtaining information about the proliferation and migration characteristics of the cultured cells and the image analysis detects the cell covered area.
NSLCs were cultured in Eagle's Minimum Essential Medium (ATCC-formulated medium, Catalog No. 30-2003) containing fetal bovine serum at 10% during several periods. Wound healing assays with supplemented medium containing 1,2,3-triazole derivatives were performed to evaluate the inhibitory effect on proliferation and migration of cancer cells.
In order to simulate as close as possible the in vivo cancer microenvironment, human plasma and calcium were added to the cell culture system to provide the hemostatic factors normally present in the cancer stroma. The previous day, cells were seeded with 10% FBS at a number that would provide 90% confluence the next day. On Day 0, a scratch (“a wound”) was performed in the middle of the well and the 10% FBS medium was replaced with 20% plasma, 20 mM calcium medium, with or without Derivative 1. 10% FBS medium was used as control in these experiments. “Wound healing” or closure of the scratch was assessed over a period of 4 days, and cell number in the wound area was quantified for each condition. Increasing amount of Derivative 1 (LTI6) was used to attain a dose-response curve.
The cell function effect of Derivative 1 was compared with Tranexamic Acid (TNA) and Caproic Acid (CA), commercially available and widely used anti-metastasis drugs.

Test [3] relates to fibrinolysis mediated by tPA (plasminogen activation by tPA). In words: Fibrinolytic assay: one-step spectrophotometric clot lysis in human plasma. It counts as biochemical. The conditions noted are these: concentration at which 50% of total fibrinolysis mediated by tPA is inhibited; human ACD plasma, clot triggered by TF, absorbance 340 nm; read-out: Anti-fibrinolytic (SERPIN) Activity IC50. The procedure:
Fibrinolytic activity in human plasma was determined by a one-step spectrophotometric method (Gidron et al. (1978) J. Clin. Pathol. 31(1):54-57) with minor modifications (see EXAMPLE 2). In this method, fibrin clot formation in anticoagulant citrate dextrose (ACD) plasma samples obtained from healthy volunteers is triggered by tissue factor (TF) and can be quantified by spectrometry as a significant increase in basal plasma absorbance at 340 nm.
As shown in FIGS. 2A-2D, in the absence of tPA, plasma absorbance remains permanently elevated.
Fibrinolytic activity in human plasmas in the presence of derivatives according to the disclosure was determined by a one-step spectrophotometric method.
Fibrin clot formation in the anticoagulant acid citrate dextrose (ACD)-treated plasma obtained from healthy volunteers is triggered by tissue factor (TF) (Thromborel S, Siemens Healthineers) and quantifies by spectrophotometry at 340 nm (using a Molecular Devices SpectraMax® M2e Multimode Microplate Reader). When recombinant human Tissue Plasminogen Activator (tPA, final concentration of 5.2 μg/ml) is simultaneously added, fibrinolysis of the clot can be determined.
Fresh blood was extracted from healthy volunteers. ACD, to reach a 10% concentration, was instantly added to the extracted blood, to prevent any unwanted coagulation. After that, blood was centrifuged for 15 min at 1,000 g. Plasma was clearly separated from red blood cells. 3 mL aliquots of aspirated plasma were immediately frozen at −20° C.
4 mL of ddH2O was added to a vial of Thromborel S and mixed thoroughly for 2 min. and left at 4° C. 500 μL TF aliquots were used for each experiment.
Representative derivatives of the present disclosure (Nos. 1, 5, and 7) were diluted in DMSO (those with Boc) or ddH2O (those with HCl) to a final concentration of 10 mM. A solution containing 1 M Tris HCl, pH 7.5 (Fisher BioReagent) (Buffer A), 0.110 g of CaCl2) in 10 mL of ddH2O (Buffer B), and tPA (Abcam, 1.3 mg/mL added into the diluted derivative solution, final concentration in serum was 5.2 μg/mL), and the derivative was prepared in a total volume of 75 μL and added to untreated, flat, clear Costar® 96-well plates in triplicate. Absorbance at 340 nm at 37° C. for 30 min was recorded every 15 sec. The plates were shaken every 3 sec in between readings. Controls for basal plasma absorbance, basal coagulation absorbance and basal fibrinolytic activity absorbance were performed in every assay.
FIG. 2A show the results a control experiment displaying the ability of TF to cause fibrin clot formation in the absence and presence of t-PA. TF was able to cause fibrin clot formation evaluated as a significant increase of the basal plasma absorbance at 340 nm.

In the case of `NCCn1cc(-c2nnc(C(=O)O)o2)nn1` [Derivative 24], the pIC50 in test [1] is 3.09; in test [2] it was 3.21; in test [3], 3.50.

In the case of `N/C(=N\O)c1cn(C2CCC(N)CC2)nn1` (stereo not drawn) [Derivative 25], the pIC50 in test [1] was 3.21; in test [2], 3.38; in test [3], 3.69.

Regarding `NCCn1cc(/C(N)=N/O)nn1` [Derivative 26], the results for the pIC50 in test [1], in test [2] and in test [3] were 3.33, 3.59 and 3.82, respectively.

On to `N/C(Cc1cn(C2CCC(N)CC2)nn1)=N/O` (stereo not drawn) [Derivative 27], for which the pIC50 in test [1] is 3.32; in test [2], 3.51; in test [3], 3.72.

Turning to `NCCn1cc(C/C(N)=N\O)nn1` [Derivative 28], the figures for the pIC50 in test [1], in test [2] and in test [3] were 3.85, 4.16 and 4.64, respectively.

In the case of `NC1CCC(n2cc(C(=O)O)nn2)CC1` (stereo not drawn) [Derivative 29], the pIC50 in test [1] was 3.66; in test [2] it was 3.89; in test [3] it was 4.17.

Consider `NCCn1cc(C(=O)O)nn1` [Derivative 30], for which the pIC50 in test [1] is 3.15; in test [2] it was 3.28; in test [3], 3.43.

In the case of `NC1CCC(n2ccnn2)CC1` (stereo not drawn) [Derivative 31], the pIC50 in test [1] is 3.51; in test [2], 3.72; in test [3], 4.13.

Take `NCCn1ccnn1` [Derivative 32]: the pIC50 was 4.00 in test [1], 4.00 in test [2] and 4.46 in test [3].

As for `N=C(N)c1cn(C2CCNCC2)nn1` [Derivative 33], the results for the pIC50 in test [1], in test [2] and in test [3] were 3.74, 4.09 and 4.54, respectively.

As to `N=C(N)c1cn(CCCN)nn1` [Derivative 34], the pIC50 in test [1] was 3.46; in test [2], 3.66; in test [3], 4.00.

In the case of `N=C(N)c1cn(C2CCC(N)CC2)nn1` (stereo not drawn) [Derivative 35], the values for the pIC50 in test [1], in test [2] and in test [3] were 3.17, 3.35 and 3.54, respectively.

For `N=C(N)c1cn(CCN)nn1` [Derivative 36], the pIC50 in test [1] is 3.38; in test [2] it was 3.56; in test [3] it was 3.92.

Consider `O=c1[nH]c(-c2cn(C3CCNCC3)nn2)no1` [compound 9, 3-(1-(piperidin-4-yl)-1H-1,2,3-triazol-4-yl)-1,2,4-oxadiazol-5(4H)-one], for which the pIC50 in test [1] was 2.96; in test [2], 3.09; in test [3], 3.30.

In the case of `O=c1[nH]nc(-c2cn(C3CCNCC3)nn2)o1` [compound 12, 5-(1-(piperidin-4-yl)-1H-1,2,3-triazol-4-yl)-1,3,4-oxadiazol-2(3H)-one], the results for the pIC50 in test [1], in test [2] and in test [3] were 3.96, 4.19 and 4.60, respectively.

The values are drawn from patent US20210317113A1, “1,2,3-TRIAZOLE DERIVATIVES AND USES THEREOF” (Alxerion Biotech LLC, priority 2020, published 2021).
